Measurements as given in patent US9939427B2, “Method for evaluating the scent performance of perfumes or perfume mixtures” (Symrise AG, priority 2013, dated 2018).

Target: T1, OR4K2 (Homo sapiens, UniProt Q8NGD2)
T1 construct: specific primers, which amplify the complete open reading frame; expressed in transfected cells; host or cells: HEK293
T1 sequence (Q8NGD2 1-314): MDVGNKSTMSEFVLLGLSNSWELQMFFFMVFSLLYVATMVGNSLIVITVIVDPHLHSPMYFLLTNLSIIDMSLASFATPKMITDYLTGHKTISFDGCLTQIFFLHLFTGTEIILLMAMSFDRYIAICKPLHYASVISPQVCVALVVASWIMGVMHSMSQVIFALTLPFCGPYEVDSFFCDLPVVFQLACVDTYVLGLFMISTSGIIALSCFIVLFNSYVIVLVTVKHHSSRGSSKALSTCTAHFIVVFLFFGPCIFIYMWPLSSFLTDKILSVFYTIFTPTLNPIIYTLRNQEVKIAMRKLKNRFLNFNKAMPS
Test: Ca-imaging of OR4K2-transfected HEK293 cells
Assay type: cell-based
Set-up: key to OR4K2 responded to odorant: ▪: 18 olfactory receptors responded to 32 odorants in related with specific anosmia
Experimental: HEK293 cells were cultivated in Petri dishes (Ø35 mm) as previously described (Benbernou et al. 2007). We grow up HEK293 cells in culture medium containing standard DMEM with 10% heat-inactivated fetal bovine serum, 2 mM L-glutamine, 100 units/ml penicillin, and 100 units/ml streptomycin in a humidified atmosphere (37° C., 5% CO2). After 2-3 days, the transfection process was carried out, whereby the cell culture was 70-80% confluent. The calciumphosphate method was applied to transfect DNA plasmid transiently in HEK293 cells in case of Ca-imaging method.
Calcium cations and phosphate anions created crystal precipitations coupled with DNA which could invade into the cells through endocytosis. Cells were transiently transfected with plasmid DNA which consists of pCI expression vector and PCR-amplified full-length cDNA of olfactory receptors candidates, and also Gα15, RTP1, Myr-Ric8A, HSC70, and m-Cherry as cofactors. The precipitation could be created after 15-20 min, with dropping the transfection solution on HEK293 cells. Before measuring by Ca-imaging cells were incubated 48-60 hours at 370 C, 5% CO2. Cationic liposome-mediated transfection method was applied to transfect DNA plasmid transiently in HANA3A cells in case of CRE-Luciferase and CRE-SEAP assays.
Calcium imaging of the transfected HEK293 cells was done by using chambers determinate an inverted microscope (Olympus; IX70) using a 10× objective (CPIanFL N Olympus). Fluorescence emission was determined every 4 s by using a CCD camera (Charge Coupled Device, C9100 Hamamatsu). The capillary tube which was responsible to supply odorants was generated closely above the cells. The columns filled with odorants, DMSO and ATP. Odorants were manually monitored to drop each 4-5 s to transfected cells. Solutions with drop wise form spread on HEK293 cells in 35 mm dishes.
In experiments, Fura-2 Acetoxymethylester (Fura-2/AM) was applied. The non-polar Fura2/AM is fluorescent but not yet calcium-sensitive. Once diffuses into cell plasma, Fura-2/AM is hydrolyzed to Fura-2 which is calcium-sensitive and functions as Ca2+ chelator. Regardless of the presence of calcium, Fura-2 emits at the wavelength of 510 nm. Once Fura-2 binds to free intracellular Ca2+ in cell plasma, its ratio of excitation at wavelengths of 340 nm and 380 nm is changed and correlated to the amount of intracellular Ca2+. According to this feature, the analysis of 340/380 nm excitation ratio for Fura-2 allows to quantify intracellular calcium levels.
In preparation for Ca-imaging measurements, transfected HEK293 cells were added 3 it Fura2/AM (3 μM) and incubated 30-45 min at 370 C, 5% CO2. After this step, experiments were carried out in a dark condition (Fura-2 is light-sensitive). After the incubation, medium of cell culture was replaced with 2 ml Ringer's solution.
Odorants were freshly prepared with DMSO as 1 M stocks solutions. Six mixtures (200 μM each chemical) were applied to cells sequentially (20 s each mixture/30 s Ringer). Those ORs tested with single odorants that had generated a response to odorant mixture group previously. Odorants were prepared in 100-200 μM concentration.
Ringer's solution was used for washing cells between measuring by two different odorants. Positive response was determined by the timing of the response, the strength of the response (more than twofold higher than the noise amplitude of the baseline), and the shape of the response curve (sharp rise in curve with gradual recovery). […]

OR4K2 responded to odorant (HEK293 cells, individual odorant 200 μM, significant response p<0.05): ▪
Response of OR4K2 to odorant, in words (single odorants 200 μM): responded
SMILES: O=C1CCCCCCCCCCCCCCO1 [Pentadecanolide, ω-cyclopentadecanolide]
